Experiment [1] relates to MCF7 human breast carcinoma cells. The experiment can be described thus: Cell viability / proliferation assay (CELLTITER-GLO, dose matrix) in MCF7 cells. The experiment is classed as cell-based. The protocol:
FIG. 1 is a series of graphs showing the effect of the combination of COMPOUND A with ANTIBODY A on MCF7 cell proliferation under the presence of IGF-1 (100 ng/ml). Briefly, MCF7 cells were treated in 384-well format for 5 days with COMPOUND A and ANTIBODY A in the presence of 100 ng/ml of IGF1 in SD medium. […] Each data point represents averaged data from 3 wells+standard deviation, and the color spectrum also represents the level of the inhibition. A red rectangle highlights the region where the combination is more efficacious than the single agents the same dose.
COMPOUND A (10 mM), stored in aliquots at −20° C. ANTIBODY A (0.2 mM in 1% BSA), stored in aliquots at 4° C. […]
Cell viability was determined by measuring cellular ATP content using the CELLTITER-GLO (CTG) luminescent cell viability assay (Promega). […] An equal volume of the CTG reagents was added to each well at the end of the compound treatment and luminescence was recorded on an ENVISION plate reader (Perkin Elmer). Reduced and enhanched luminescent signal values (responses) were calculated relative to untreated (control) cells. […]
The synergistic interaction (analyzed using Chalice software [CombinatoRx, Cambridge Mass.]) was calculated by comparing the response from a combination to the response of the agent acting alone, against the drug-with-itself dose-additive reference model. […]
On the technique in general: In ATP-based viability assays light output follows the ATP content of the culture.

Experiment [2] relates to MCF7 xenograft. The experiment can be described thus: MCF7 xenograft in mice, tumor volume. Format: in vivo. The protocol: MCF-7 cells (purchased from American Type Culture Collection (ATCC)) were tested free of mycoplasma and viral contamination in the IMPACT VIII PCR assay panel (RADIL, MU Research Animal Diagnostic Laboratory, Columbia, Mo.). MCF-7 cells were cultured in EMEM medium (ATCC#30-2003) containing 10% heat-inactivated fetal bovine serum. Mice were implanted with 17b-estradiol pellets, 0.18 mg/pellet, 90-day release (Innovative research of America Catalog #NE-121), between the shoulder blades three days before the cell implant.
Treatment started on day 21 and concluded by day 59. Tumor volume of each group was measured. The effect of COMPOUND A and ANTIBODY A, as monotherapy and combination, was assessed by comparing: • (a) the percent change between Day 1 and endpoint day in the mean tumor volume of the treated group (T) and the control group (C) (herein referred to as “T/C”), and • (b) the percent change between Day 1 and the endpoint day in the mean tumor volume of the treated group compared to its initial volume (herein referred to as “T/T0”).

The values below come from patent publication US8980259B2, “Combination therapy” (Novartis AG, priority 2012, dated 2015).

Turning to `Cc1nc(NC(=O)N2CCC[C@H]2C(N)=O)sc1-c1ccnc(C(C)(C)C(F)(F)F)c1` [COMPOUND A, (S)-Pyrrolidine-1,2-dicarboxylic acid 2-amide 1-({4-methyl-5-[2-(2,2,2-trifluoro-1,1-dimethyl-ethyl)-pyridin-4-yl]-thiazol-2-yl}-amide)], the “MCF7 growth inhibition in vitro (summary in words)” value in experiment [1] (MCF7, Experiment 1 summary) is listed as “concentration-dependent tumor growth inhibition”. Moreover, the “anti-proliferative activity (in words)” value in experiment [1] (MCF7, single agent, either in the presence or absence of IGF1) is listed as “concentration dependent anti-proliferative activity”. Moreover, the “tumor outcome in MCF7 xenograft (summary in words)” value in experiment [2] (MCF7 xenograft in mice, Experiment 2 summary) is recorded as “tumor stasis”. Moreover, the “T/C (percent change in mean tumor volume, treated vs control group)” value in experiment [2] (MCF7 xenograft mice, COMPOUND A 30 mg/kg qd po, ANTIBODY A 12 mg/kg q2w ip, treatment day 21 to day 59) is 10%.
